Measured values as given in the supplement of paper PMC10627819.
Values after ≈ are worked out from the molar mass of the structure shown.

Key:
S. aureus DSM 20231 [1] = assay: Bliss interaction score (quartile over a dose matrix) (fitness difference); higher = more antagonism (negative = synergy)
Outline: (§1)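 Quartiles of the Bliss score were taken over technical, biological and donor/recipient replicates. That score is observed fitness minus the product of the single-drug fitness values, which were inferred from combination data. Fitness itself is OD595 at entry into stationary phase divided by the plate's robust no-drug mean, with a cap at 1.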

S. pneumoniae D39V [2] = assay: as above
Outline: as §1

B. subtilis 168 [3] = assay: as above
Outline: as §1

S. aureus Newman [4] = assay: as above
Outline: as §1

S. aureus DSM 20231 [5] = assay: fitness (endpoint OD595 vs no drug) (fraction); higher = more growth
Outline: (§2)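 Each well of a 384-well plate received 30 µl of culture at OD595 0.01, or 55 µl for S. pneumoniae. TSB, LB Lennox or CY served as media at 37 °C. OD595 was taken every 30 min for 14 h and corrected by subtracting the first reading. Fitness is the optical density at stationary-phase entry divided by the robust mean of no-drug controls, capped at 1.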

S. pneumoniae D39V [6] = assay: as above
Outline: as §2

B. subtilis 168 [7] = assay: as above
Outline: as §2

S. aureus Newman [8] = assay: as above
Outline: as §2

S. aureus DSM 20231 [9] = test system: S. aureus DSM 20231
S. pneumoniae D39V [10] = test system: S. pneumoniae D39V
B. subtilis 168 [11] = test system: B. subtilis 168
S. aureus Newman [12] = test system: S. aureus Newman
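Throughout, for Bliss interaction score (quartile over a dose matrix): first quartile when negative (synergy) and third quartile when positive (antagonism).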

CC(=O)NC[C@H]1CN(c2ccc(N3CCOCC3)c(F)c2)C(=O)O1 [Linezolid] + C[n+]1ccc(-c2cc[n+](C)cc2)cc1 [Paraquat]
Details	Bliss interaction score
B. subtilis 168 [3]	0.0297
S. aureus DSM 20231 [1]	0.0716
S. aureus Newman [4]	-0.0403
S. pneumoniae D39V [2]	0.109

fitness
Details	first compound 0.105 µg/mL	first compound 0.125 µg/mL	first compound 0.21 µg/mL	first compound 0.25 µg/mL	first compound 0.42 µg/mL	first compound 0.5 µg/mL
B. subtilis 168 [7], partner 1.25 µg/mL	–	0.562	–	0.068	–	0.0393
B. subtilis 168 [7], partner 2.5 µg/mL	–	0.521	–	0.0848	–	0.0301
B. subtilis 168 [7], partner 5 µg/mL	–	0.531	–	0.101	–	0.0453
S. aureus DSM 20231 [5], partner 1.25 µg/mL	–	0.812	–	0.6	–	0.234
S. aureus DSM 20231 [5], partner 2.5 µg/mL	–	0.768	–	0.63	–	0.295
S. aureus DSM 20231 [5], partner 5 µg/mL	–	0.845	–	0.654	–	0.323
S. pneumoniae D39V [6], partner 1.5 µg/mL	0.876	–	0.76	–	0.598	–
S. pneumoniae D39V [6], partner 3 µg/mL	0.836	–	0.743	–	0.565	–
S. pneumoniae D39V [6], partner 6 µg/mL	0.826	–	0.711	–	0.565	–

fitness, one replicate
Details	partner 1.25 µg/mL	partner 1.5 µg/mL	partner 2.5 µg/mL	partner 3 µg/mL	partner 5 µg/mL	partner 6 µg/mL
B. subtilis 168 [7], first compound 0.0625 µg/mL	0.876	–	0.876	–	0.749	–
S. aureus DSM 20231 [5], first compound 1 µg/mL	0.0626	–	0.0623	–	0.0727	–
S. pneumoniae D39V [6], first compound 0.2 µg/mL	–	0.883	–	0.921	–	0.93
S. pneumoniae D39V [6], first compound 0.4 µg/mL	–	0.822	–	0.853	–	0.874
S. pneumoniae D39V [6], first compound 0.8 µg/mL	–	0.621	–	0.626	–	0.727

CN[C@@H]1[C@H](O)[C@H](NC)[C@H]2O[C@@]3(O)C(=O)C[C@@H](C)O[C@H]3O[C@@H]2[C@H]1O [Spectinomycin] + Cn1nnc(-c2ccc(-c3ccc(N4C[C@H](CO)OC4=O)cc3F)cn2)n1 [Tedizolid]
Details	Bliss interaction score
B. subtilis 168 [3]	-0.0466
S. aureus DSM 20231 [1]	0.0654
S. aureus Newman [4]	-0.111
S. pneumoniae D39V [2]	-0.0885

fitness
Details	first compound 4 µg/mL	first compound 8 µg/mL	first compound 16 µg/mL
S. aureus DSM 20231 [5], partner 0.0625 µg/mL	0.964	0.916	0.744
S. aureus DSM 20231 [5], partner 0.125 µg/mL	0.657	0.678	0.641
S. aureus DSM 20231 [5], partner 0.25 µg/mL	0.257	0.225	0.199
S. aureus Newman [8], partner 0.0625 µg/mL	0.922	0.939	–
S. pneumoniae D39V [6], partner 0.03125 µg/mL	0.87	0.914	0.78
S. pneumoniae D39V [6], partner 0.0625 µg/mL	0.888	0.955	0.807
S. pneumoniae D39V [6], partner 0.125 µg/mL	0.815	0.807	0.729

fitness, one replicate
Details	partner 0.0625 µg/mL	partner 0.125 µg/mL	partner 0.25 µg/mL	partner 0.5 µg/mL
S. aureus DSM 20231 [5], first compound 32 µg/mL	0.406	0.202	0.0234	–
S. aureus DSM 20231 [5], first compound 64 µg/mL	0.0239	0.0268	0.0093	–
S. aureus Newman [8], first compound 32 µg/mL	0.101	0.0307	0.0315	–
S. aureus Newman [8], first compound 64 µg/mL	0.0254	0.023	0.0159	–
S. pneumoniae D39V [6], first compound 4 µg/mL	–	–	0.73	0.362
S. pneumoniae D39V [6], first compound 8 µg/mL	–	–	0.724	0.416

CN[C@@H]1[C@H](O)[C@H](NC)[C@H]2O[C@@]3(O)C(=O)C[C@@H](C)O[C@H]3O[C@@H]2[C@H]1O [Spectinomycin]
Details	MIC [µg/mL]
B. subtilis 168 [11]	8 (≈ 24.1 µM)
S. aureus DSM 20231 [9]	16 (≈ 48.1 µM)
S. aureus Newman [12]	16 (≈ 48.1 µM)
S. pneumoniae D39V [10]	64 (≈ 193 µM)

fitness
Details	B. subtilis 168 [7]	S. aureus DSM 20231 [5]	S. aureus Newman [8]	S. pneumoniae D39V [6]
2 µg/mL	0.992	–	–	–
4 µg/mL	0.964	0.966	0.963	0.956
8 µg/mL	0.941	0.961	0.93	0.865
16 µg/mL	–	0.851	0.893	0.702

CO[C@@]12[C@H](COC(N)=O)C3=C(C(=O)C(C)=C(N)C3=O)N1C[C@@H]1N[C@@H]12 [Mitomycin C]
Details	MIC [µg/mL]
B. subtilis 168 [11]	0.25 (≈ 0.748 µM)
S. aureus DSM 20231 [9]	0.069 (≈ 0.206 µM)
S. aureus Newman [12]	0.069 (≈ 0.206 µM)
S. pneumoniae D39V [10]	0.062 (≈ 0.185 µM)

Details	fitness
B. subtilis 168 [7], 0.0312 µg/mL	0.78
B. subtilis 168 [7], 0.0625 µg/mL	0.582
B. subtilis 168 [7], 0.125 µg/mL	0.0244
S. aureus DSM 20231 [5], 0.0156 µg/mL	0.844
S. aureus DSM 20231 [5], 0.0312 µg/mL	0.775
S. aureus DSM 20231 [5], 0.0625 µg/mL	0.59
S. aureus DSM 20231 [5], 0.1562 µg/mL	0.886
S. aureus Newman [8], 0.0156 µg/mL	0.71
S. aureus Newman [8], 0.0312 µg/mL	0.618
S. aureus Newman [8], 0.0625 µg/mL	0.452
S. pneumoniae D39V [6], 0.002 µg/mL	0.823
S. pneumoniae D39V [6], 0.004 µg/mL	0.754
S. pneumoniae D39V [6], 0.008 µg/mL	0.554

CN[C@@H]1[C@H](O[C@H]2[C@H](O[C@H]3[C@H](O)[C@@H](O)[C@H](N=C(N)N)[C@@H](O)[C@@H]3N=C(N)N)O[C@@H](C)[C@]2(O)C=O)O[C@@H](CO)[C@H](O)[C@H]1O [Streptomycin]
Details	MIC [µg/mL]
B. subtilis 168 [11]	8 (≈ 13.8 µM)
S. aureus DSM 20231 [9]	8 (≈ 13.8 µM)
S. aureus Newman [12]	8 (≈ 13.8 µM)
S. pneumoniae D39V [10]	8 (≈ 13.8 µM)

fitness
Details	1 µg/mL	2 µg/mL	4 µg/mL	8 µg/mL
B. subtilis 168 [7]	–	0.954	0.775	0.0378
S. aureus Newman [8]	0.971	0.954	0.899	0.579
S. pneumoniae D39V [6]	–	0.932	0.943	0.914
